The source made the active and inactive calls. How the calls were made is not given here.
Tested on: CCRIS mutagenicity, Ames/micronucleus/aberration tests
Experiment: CCRIS mutagenicity studies

**Q.** Which results are given for `Oc1ccccc1`?
**A.** mutagenic call (End Point: IN VITRO CHROMOSOMAL ABERRATIONS, Test System: CHO CELLS, Metabolic Activation: NONE): inactive; negative; mutagenic call (End Point: IN VITRO CHROMOSOMAL ABERRATIONS, Test System: CHO CELLS, Metabolic Activation: RAT, LIVER, S-9, AROCLOR 1254): active; positive; mutagenic call (End Point: IN VITRO CHROMOSOMAL ABERRATIONS, Test System: V79 CELLS, Metabolic Activation: NONE): inactive; negative; effect more pronounced at ph 8 but no significant increase; mutagenic call (End Point: IN VITRO MICRONUCLEUS, Test System: CHINESE HAMSTER OVARY (CHO-K5), Metabolic Activation: NONE): active; positive; no statistical analysis was performed; mutagenic call (End Point: IN VITRO MICRONUCLEUS, Test System: CHINESE HAMSTER OVARY (CHO-K5), Metabolic Activation: RAT, LIVER, S-9, PHENOBARBITAL AND BETA-NAPHTHOFLAVONE): active; positive; mutagenic call (End Point: IN VITRO MICRONUCLEUS, Test System: CHL/IU CELLS, Metabolic Activation: RAT, LIVER, S-9, PHENOBARBITAL AND 5,6-BENZOFLAVONE): active; positive; mutagenic call (End Point: IN VITRO MICRONUCLEUS, Test System: CHO CELLS, Metabolic Activation: RAT, LIVER, S-9, AROCLOR 1254): active; positive; mutagenic call (End Point: In vivo micronucleus, Test System: Bone marrow cells, Species: Mouse, Strain/Sex: CD1/Female, Route: Intraperitoneal): active; positive (highest dose only); mutagenic call (End Point: In vivo micronucleus, Test System: Bone marrow cells, Species: Mouse, Strain/Sex: CD1/Male, Route: Intraperitoneal): active; positive (highest dose only); mutagenic call (Test System: AMES SALMONELLA TYPHIMURIUM, Strain/Indicator: TA97, Metabolic Activation: NONE, Method: PREINCUBATION): inactive; negative; mutagenic call (Test System: AMES SALMONELLA TYPHIMURIUM, Strain/Indicator: TA97, Metabolic Activation: RAT, LIVER, S-9, AROCLOR 1254, Method: PREINCUBATION): inactive; negative; mutagenic call (Test System: AMES SALMONELLA TYPHIMURIUM, Strain/Indicator: TA98, Metabolic Activation: NONE, Method: FLUCTUATION (MICROTITER)): inactive; negative; mutagenic call (Test System: AMES SALMONELLA TYPHIMURIUM, Strain/Indicator: TA98, Metabolic Activation: NONE, Method: PREINCUBATION): inactive; negative; mutagenic call (Test System: AMES SALMONELLA TYPHIMURIUM, Strain/Indicator: TA98, Metabolic Activation: RAT LIVER S-9, AROCLOR 1254, Method: FLUCTUATION (MICROTITER)): inactive; negative; mutagenic call (Test System: AMES SALMONELLA TYPHIMURIUM, Strain/Indicator: TA98, Metabolic Activation: RAT LIVER S-9, PHENOBARBITAL AND BETA-NAPHTHOFLAVONE, Method: PREINCUBATION): inactive; negative; mutagenic call (Test System: AMES SALMONELLA TYPHIMURIUM, Strain/Indicator: TA98, Metabolic Activation: RAT, LIVER, S-9, AROCLOR 1254, Method: PREINCUBATION): inactive; negative; mutagenic call (Test System: AMES SALMONELLA TYPHIMURIUM, Strain/Indicator: TA98, Metabolic Activation: RAT, LIVER, S-9, AROCLOR 1254, Method: STANDARD PLATE): inactive; negative; mutagenic call (Test System: AMES SALMONELLA TYPHIMURIUM, Strain/Indicator: TA100, Metabolic Activation: NONE, Method: FLUCTUATION TEST): inactive; negative; mutagenic call (Test System: AMES SALMONELLA TYPHIMURIUM, Strain/Indicator: TA100, Metabolic Activation: NONE, Method: PREINCUBATION): inactive; negative; mutagenic call (Test System: AMES SALMONELLA TYPHIMURIUM, Strain/Indicator: TA100, Metabolic Activation: RAT LIVER S-9, PHENOBARBITAL AND BETA-NAPHTHOFLAVONE, Method: PREINCUBATION): inactive; negative; mutagenic call (Test System: AMES SALMONELLA TYPHIMURIUM, Strain/Indicator: TA100, Metabolic Activation: RAT, LIVER, S-9, AROCLOR 1254, Method: PREINCUBATION): inactive; negative; mutagenic call (Test System: AMES SALMONELLA TYPHIMURIUM, Strain/Indicator: TA100, Metabolic Activation: RAT, LIVER, S-9, PCB, Method: FLUCTUATION TEST): active; positive; mutagenic call (Test System: AMES SALMONELLA TYPHIMURIUM, Strain/Indicator: TA102, Metabolic Activation: NONE, Method: PREINCUBATION): inactive; negative; mutagenic call (Test System: AMES SALMONELLA TYPHIMURIUM, Strain/Indicator: TA102, Metabolic Activation: RAT, LIVER, S-9, AROCLOR 1254, Method: PREINCUBATION): inactive; negative; mutagenic call (Test System: AMES SALMONELLA TYPHIMURIUM, Strain/Indicator: TA104, Metabolic Activation: NONE, Method: PREINCUBATION): inactive; negative; mutagenic call (Test System: AMES SALMONELLA TYPHIMURIUM, Strain/Indicator: TA104, Metabolic Activation: RAT, LIVER, S-9, AROCLOR 1254, Method: PREINCUBATION): inactive; negative; mutagenic call (Test System: AMES SALMONELLA TYPHIMURIUM, Strain/Indicator: TA1535, Metabolic Activation: NONE, Method: PREINCUBATION): inactive; negative; mutagenic call (Test System: AMES SALMONELLA TYPHIMURIUM, Strain/Indicator: TA1535, Metabolic Activation: RAT LIVER S-9, PHENOBARBITAL AND BETA-NAPHTHOFLAVONE, Method: PREINCUBATION): inactive; negative; mutagenic call (Test System: AMES SALMONELLA TYPHIMURIUM, Strain/Indicator: TA1535, Metabolic Activation: RAT, LIVER, S-9, AROCLOR 1254, Method: PREINCUBATION): inactive; negative; mutagenic call (Test System: AMES SALMONELLA TYPHIMURIUM, Strain/Indicator: TA1535, Metabolic Activation: RAT, LIVER, S-9, AROCLOR 1254, Method: STANDARD PLATE): inactive; negative; mutagenic call (Test System: AMES SALMONELLA TYPHIMURIUM, Strain/Indicator: TA1537, Metabolic Activation: NONE, Method: FLUCTUATION (MICROTITER)): inactive; negative; mutagenic call (Test System: AMES SALMONELLA TYPHIMURIUM, Strain/Indicator: TA1537, Metabolic Activation: NONE, Method: PREINCUBATION): inactive; negative; mutagenic call (Test System: AMES SALMONELLA TYPHIMURIUM, Strain/Indicator: TA1537, Metabolic Activation: RAT LIVER S-9, AROCLOR 1254, Method: FLUCTUATION (MICROTITER)): inactive; negative; mutagenic call (Test System: AMES SALMONELLA TYPHIMURIUM, Strain/Indicator: TA1537, Metabolic Activation: RAT LIVER S-9, PHENOBARBITAL AND BETA-NAPHTHOFLAVONE, Method: PREINCUBATION): inactive; negative; mutagenic call (Test System: AMES SALMONELLA TYPHIMURIUM, Strain/Indicator: TA7001, Metabolic Activation: NONE, Method: FLUCTUATION (MICROTITER)): inactive; negative; mutagenic call (Test System: AMES SALMONELLA TYPHIMURIUM, Strain/Indicator: TA7001, Metabolic Activation: RAT LIVER S-9, AROCLOR 1254, Method: FLUCTUATION (MICROTITER)): inactive; negative; mutagenic call (Test System: AMES SALMONELLA TYPHIMURIUM, Strain/Indicator: TA7002, Metabolic Activation: NONE, Method: FLUCTUATION (MICROTITER)): inactive; negative; mutagenic call (Test System: AMES SALMONELLA TYPHIMURIUM, Strain/Indicator: TA7002, Metabolic Activation: RAT LIVER S-9, AROCLOR 1254, Method: FLUCTUATION (MICROTITER)): inactive; negative; mutagenic call (Test System: AMES SALMONELLA TYPHIMURIUM, Strain/Indicator: TA7003, Metabolic Activation: NONE, Method: FLUCTUATION (MICROTITER)): inactive; negative; mutagenic call (Test System: AMES SALMONELLA TYPHIMURIUM, Strain/Indicator: TA7003, Metabolic Activation: RAT LIVER S-9, AROCLOR 1254, Method: FLUCTUATION (MICROTITER)): inactive; negative; mutagenic call (Test System: AMES SALMONELLA TYPHIMURIUM, Strain/Indicator: TA7004, Metabolic Activation: NONE, Method: FLUCTUATION (MICROTITER)): inactive; negative; mutagenic call (Test System: AMES SALMONELLA TYPHIMURIUM, Strain/Indicator: TA7004, Metabolic Activation: RAT LIVER S-9, AROCLOR 1254, Method: FLUCTUATION (MICROTITER)): inactive; negative; mutagenic call (Test System: AMES SALMONELLA TYPHIMURIUM, Strain/Indicator: TA7005, Metabolic Activation: NONE, Method: FLUCTUATION (MICROTITER)): inactive; negative; mutagenic call (Test System: AMES SALMONELLA TYPHIMURIUM, Strain/Indicator: TA7005, Metabolic Activation: RAT LIVER S-9, AROCLOR 1254, Method: FLUCTUATION (MICROTITER)): inactive; negative; mutagenic call (Test System: AMES SALMONELLA TYPHIMURIUM, Strain/Indicator: TA7006, Metabolic Activation: NONE, Method: FLUCTUATION (MICROTITER)): inactive; negative; mutagenic call (Test System: AMES SALMONELLA TYPHIMURIUM, Strain/Indicator: TA7006, Metabolic Activation: RAT LIVER S-9, AROCLOR 1254, Method: FLUCTUATION (MICROTITER)): inactive; negative; mutagenic call (Test System: CHINESE HAMSTER V-79, Strain/Indicator: V-79/6-THIOGUANINE, Metabolic Activation: NONE): inactive; negative; mutagenic call (Test System: E.COLI, Strain/Indicator: WP2UVRA, Metabolic Activation: NONE, Method: PREINCUBATION): inactive; negative; mutagenic call (Test System: E.COLI, Strain/Indicator: WP2UVRA, Metabolic Activation: RAT LIVER S-9, PHENOBARBITAL AND BETA-NAPHTHOFLAVONE, Method: PREINCUBATION): inactive; negative; mutagenic call (Test System: MOUSE LYMPHOMA, Strain/Indicator: L5178Y (TK+/TK-), Metabolic Activation: NONE, Method: SUSPENSION/PLATE): active; positive; mutagenic call (Test System: MOUSE LYMPHOMA, Strain/Indicator: L5178Y (TK+/TK-), Metabolic Activation: RAT, LIVER, S-9, AROCLOR 1254, Method: SUSPENSION/PLATE): active; positive; mutagenic call (Test System: UDS SHE CELLS, Strain/Indicator: THY INCORP, Metabolic Activation: NONE, Method: LIQUID SCINTILLATION COUNTING): active; positive

Source: PubChem BioAssay AID1259407 (Chemical Carcinogenesis Research Information System (CCRIS), 2018)
